Measured values taken from paper PMC7673538 (PLoS Biology, 2020).
“And” between values parts separate entries of the source, which are not always exact repeats. Equal values may be shown once. Read-outs that look alike come from different tables or passages of the source.

Tests used:
PV-1 = assay: microbe, parasite or virus in culture; type: cell-based, poliovirus 1; conditions: for EC50: Enterovirus C
in vitro [1] = conditions: human
[2] = test system: representative EVs and RVs; type: cell-based
in vitro [3] = conditions: human; remark: listed apart in the source
CV-B3 [4] = assay: microbe, parasite or virus in culture; type: cell-based, coxsackievirus B3; conditions: Enterovirus B, CVB3, BGM
CV-A24 (strain Joseph) = type: cell-based, coxsackievirus A24; conditions: compound concentration 1 µM
CV-B3 [5] = assay: microbe, parasite or virus in culture; type: cell-based, coxsackievirus B3; conditions: for EC50: Enterovirus B
HRV-B14 = assay: microbe, parasite or virus in culture; type: cell-based, human rhinovirus

Compound: COc1ccc(N(Cc2ccc(F)cc2)C(=O)c2ccco2)cc1 [Compound 1, N-(4-fluorobenzyl)-N-(4-methoxyphenyl)furan-2-carboxamide]
- Figure 7 dose-response raw data, PV-1 (triplicate values) (PV-1; Concentration 1.1111 µM): 13.4388 and 8.357 and 9.294
- Figure 7 dose-response raw data, PV-1 (triplicate values) (PV-1; Concentration 3.3333 µM): 10.497 and 11.7005 and 9.1598
- Figure 7 dose-response raw data, PV-1 (triplicate values) (PV-1; Concentration 11.1111 µM): 10.7644 and 8.357 and 9.1598
- Figure 7 dose-response raw data, PV-1 (triplicate values) (PV-1; Concentration 33.3333 µM): 13.4388 and 8.357 and 9.294
- Figure 7 dose-response raw data, PV-1 (triplicate values) (PV-1; Concentration 100 µM): 9.294 and 9.1598
- EC50 (PV-1; HeLa R19, read-out: EC50 PV-1): > 30 µM
- EC50 (PV-1; HeLa R19, read-out: EC50 PV-1 Average): > 30 µM
- EC50 (PV-1; HeLa R19, read-out: EC50 PV-1 Experiement 3): > 30 µM
- EC50 (PV-1; HeLa R19, read-out: EC50 PV-1 Experiment 1): > 30 µM
- EC50 (PV-1; HeLa R19, read-out: EC50 PV-1 Experiment 2): > 30 µM
- CC50 (in vitro [1]; CC50 Hap1 Average): 45.6 µM
- CC50 (in vitro [1]; Exp 1 CC50 Hap1): 45.1 µM
- CC50 (in vitro [1]; Exp 2 CC50 Hap1): 46.1 µM
- inhibition of contemporary/clinical isolates of EV-A71, CV-A24v and EV-D68 (in words) [2]: only inhibited the contemporary strains of EV-D68
- CC50 (in vitro [3]; CC50): > 30 µM
- CC50 (in vitro [3]; CC50 Average): > 30 µM
- CC50 (in vitro [3]; CC50 Experiement 3): > 30 µM
- CC50 (in vitro [3]; CC50 Experiment 1): > 30 µM
- CC50 (in vitro [3]; CC50 Experiment 2): > 30 µM
- CC50 (in vitro [3]; CC50 HelaR19 Average): 43.9 µM
- CC50 (in vitro [3]; Exp 1 CC50): > 30 µM
- CC50 (in vitro [3]; Exp 1 CC50 HelaR19): 40.4 µM
- CC50 (in vitro [3]; Exp2 CC50): > 30 µM
- CC50 (in vitro [3]; Exp 2 CC50 HelaR19): 47.4 µM
- EC50 (CV-B3 [4]; read-out: EC50 BGM Average): 1.66 µM
- EC50 (CV-B3 [4]; read-out: Exp 1 EC50 BGM): 1.43 µM
- EC50 (CV-B3 [4]; read-out: Exp 2 EC50 BGM): 1.89 µM
- virus titer, TCID50/ml (Figure 2A) (CV-A24 (strain Joseph)): 100000 TCID50/ml and 169824 TCID50/ml and 162341 TCID50/ml
- antiviral activity against CV-B3 (in words) (CV-B3 [5]): inhibited
- Figure 7 dose-response raw data, CV-B3 (triplicate values) (CV-B3 [5]; Concentration 0.001 µM): 8.4087 and 12.9113 and 13.3731
- Figure 7 dose-response raw data, CV-B3 (triplicate values) (CV-B3 [5]; Concentration 0.0046 µM): 8.524 and 14.1813 and 13.8349
- Figure 7 dose-response raw data, CV-B3 (triplicate values) (CV-B3 [5]; Concentration 0.0137 µM): 8.178 and 10.6023 and 11.4104
- Figure 7 dose-response raw data, CV-B3 (triplicate values) (CV-B3 [5]; Concentration 0.0412 µM): 8.755 and 10.1405 and 13.8349
- Figure 7 dose-response raw data, CV-B3 (triplicate values) (CV-B3 [5]; Concentration 0.1235 µM): 8.6396 and 9.794 and 10.7177
- Figure 7 dose-response raw data, CV-B3 (triplicate values) (CV-B3 [5]; Concentration 0.3704 µM): 31.7298 and 16.0285 and 26.5345
- Figure 7 dose-response raw data, CV-B3 (triplicate values) (CV-B3 [5]; Concentration 1.1111 µM): 69.1798 and 64.4511 and 60.4699
- Figure 7 dose-response raw data, CV-B3 (triplicate values) (CV-B3 [5]; Concentration 3.3333 µM): 108.671 and 85.22 and 102.264
- Figure 7 dose-response raw data, CV-B3 (triplicate values) (CV-B3 [5]; Concentration 10 µM): 111.619 and 82.0162 and 97.2661
- EC50 (CV-B3 [5]; CVB3, HeLa R19): 1.92 ± 0.04 µM
- EC50 (CV-B3 [5]; CVB3, HeLa R19, read-out: CV-B3 EC50 Average): 1.92 µM
- EC50 (CV-B3 [5]; CVB3, HeLa R19, read-out: CV-B3 Exp 1 EC50): 1.87 µM
- EC50 (CV-B3 [5]; CVB3, HeLa R19, read-out: CV-B3 Exp2 EC50): 1.96 µM
- EC50 (CV-B3 [5]; CVB3, HeLa R19, read-out: EC50 CV-B3): 1.71 ± 0.07 µM
- EC50 (CV-B3 [5]; CVB3, HeLa R19, read-out: EC50 CVB3 Experiement 3): 1.78 µM
- EC50 (CV-B3 [5]; CVB3, HeLa R19, read-out: EC50 CVB3 Experiment 1): 1.72 µM
- EC50 (CV-B3 [5]; CVB3, HeLa R19, read-out: EC50 CVB3 Experiment 2): 1.62 µM
- EC50 (CV-B3 [5]; CVB3, HeLa R19, read-out: EC50 HelaR19 Average): 1.76 µM
- EC50 (CV-B3 [5]; CVB3, HeLa R19, read-out: Exp 1 EC50 HelaR19): 1.65 µM
- EC50 (CV-B3 [5]; CVB3, HeLa R19, read-out: Exp 2 EC50 HelaR19): 1.87 µM
- inhibition of HRV-B14 replication (in words) (HRV-B14): antiviral activity
- Figure 7 dose-response raw data, HRV_B14 (triplicate values) (HRV-B14; Concentration 0.0046 µM): 15.2266 and 14.5606
- Figure 7 dose-response raw data, HRV_B14 (triplicate values) (HRV-B14; Concentration 0.0137 µM): 15.2266 and 14.5606
- Figure 7 dose-response raw data, HRV_B14 (triplicate values) (HRV-B14; Concentration 0.0412 µM): 15.2266 and 14.5606 and 20.943
- Figure 7 dose-response raw data, HRV_B14 (triplicate values) (HRV-B14; Concentration 0.3704 µM): 23.8668 and 30.9898 and 27.193
- Figure 7 dose-response raw data, HRV_B14 (triplicate values) (HRV-B14; Concentration 1.1111 µM): 29.6577 and 30.8788 and 30.9898
- Figure 7 dose-response raw data, HRV_B14 (triplicate values) (HRV-B14; Concentration 3.3333 µM): 15.2266 and 14.5606
- Figure 7 dose-response raw data, HRV_B14 (triplicate values) (HRV-B14; Concentration 11.1111 µM): 71.9426 and 62.9417 and 74.4773
- Figure 7 dose-response raw data, HRV_B14 (triplicate values) (HRV-B14; Concentration 33.3333 µM): 100.034 and 89.1582 and 86.605
- Figure 7 dose-response raw data, HRV_B14 (triplicate values) (HRV-B14; Concentration 100 µM): 104.147 and 89.1582 and 86.605
- EC50 (HRV-B14; Human rhinovirus sp., HRVB14, HeLa R19, read-out: EC50 Exp1): 10.8 µM
- EC50 (HRV-B14; Human rhinovirus sp., HRVB14, HeLa R19, read-out: EC50 Exp2): 13.9 µM
- EC50 (HRV-B14; Human rhinovirus sp., HRVB14, HeLa R19, read-out: EC50 HRV-B14): 10.8 ± 1.27 µM
- EC50 (HRV-B14; Human rhinovirus sp., HRVB14, HeLa R19, read-out: EC50 HRV-B14 Experiement 3): 11.1 µM
- EC50 (HRV-B14; Human rhinovirus sp., HRVB14, HeLa R19, read-out: EC50 HRV-B14 Experiment 1): 12.2 µM
- EC50 (HRV-B14; Human rhinovirus sp., HRVB14, HeLa R19, read-out: EC50 HRV-B14 Experiment 2): 9.16 µM
- EC50 (HRV-B14; read-out: EC50 HRV-B14): 12.4 ± 1.51 µM
